No end group written: not given here.
Experiments:
Format in all cases: cell-based, human
Details in all cases: 24 h
[1] = system: MGC803 cells of stomach cancer; experiment: Matrigel transwell invasion test
Description: (§1) Dilute 10 mg/mL Matrigel with culture medium at 1:3, spread it on membranes of transwell cells and dry it in the air at room temperature. Use trypsin to digest and collect SCC4 cells of head and neck cancer, SW579 cells of thyroid cancer, A549 cells of lung cancer, TE13 cells of esophageal squamous cell carcinoma, MGC803 cells of stomach cancer, MDA-MB-231 cells of breast cancer, UOK262 cells of kidney cancer, and A431 cells of skin cancer of human, which were cultured to the logarithmic phase, wash with PBS twice and re-suspend with a blank culture medium. Adjust cell concentration to 1×10^5 cells/mL. Inoculate the cells to transwell cells, 100 μL per well, and meanwhile add micropeptides HMMW I to IX at different doses to every cell. Add 0.6 mL of complete medium containing 10% FBS to the transwell cells to stimulate cell invasion, and culture in 5% CO2 at 37 DEG C. for 24 h. Discard the medium in the wells, fix with 90% alcohol at room temperature for 30 min, stain with 0.1% crystal violet at room temperature for 10 min, rinse with clear water, gently wipe off the non-invaded cells in the upper layer with a cotton swab, observe under a microscope and select four fields of view to take pictures and count. Calculate the invasion inhibition rate (IIR) of the cells according to the following formula:
(§2) [formula] where Ntest is the number of invaded cells in the test groups (the groups at a dose of 1, 4 or 16 μM in the table), Ncontrol is the number of invaded cells in the blank control groups (the groups at a dose of 0 μM in the table). The test was repeated independently three times. Mean±SD was calculated based on the test results. Statistical t test was done. Value P was used to express statistical difference. The statistical significance of the results is a method for estimating how true the results are (the totality can be represented), *P<0.05 means significant difference, and **P<0.01 means very significant difference.

[2] = system: A549 cells of lung cancer; experiment: Matrigel transwell invasion test
Description: as §1, §2

[3] = system: UOK262 cells of kidney cancer; experiment: Matrigel transwell invasion test
Description: as §1, §2

[4] = system: SCC4 cells of head and neck cancer; experiment: Matrigel transwell invasion test
Description: as §1, §2

[5] = system: SW579 cells of thyroid cancer; experiment: Matrigel transwell invasion test
Description: as §1, §2

[6] = system: TE13 cells of esophageal squamous cell carcinoma; experiment: Matrigel transwell invasion test
Description: as §1, §2

[7] = system: A431 cells of skin cancer; experiment: Matrigel transwell invasion test
Description: as §1, §2

[8] = system: MDA-MB-231 cells of breast cancer; experiment: Matrigel transwell invasion test
Description: as §1, §2

[9] = system: MGC803 cells of stomach cancer; experiment: transwell migration test
[10] = system: A549 cells of lung cancer; experiment: transwell migration test
[11] = system: UOK262 cells of kidney cancer; experiment: transwell migration test
[12] = system: SW579 cells of thyroid cancer; experiment: transwell migration test
[13] = system: TE13 cells of esophageal squamous cell carcinoma; experiment: transwell migration test
[14] = system: A431 cells of skin cancer; experiment: transwell migration test
[15] = system: MDA-MB-231 cells of breast cancer; experiment: transwell migration test

MERAGVPGFSPRRSSVEAKMQSTSCSVRKSSTVTAWPAVVLLLSWGQRRGE-OH [HMMW-VIII]
invasion inhibition rate ([1]; dose 1 μM): 26.01% | invasion inhibition rate ([1]; dose 4 μM): 57.18% | invasion inhibition rate ([1]; dose 16 μM): 70.60% | invasion inhibition rate ([2]; dose 1 μM): 34.03% | invasion inhibition rate ([2]; dose 4 μM): 55.20% | invasion inhibition rate ([2]; dose 16 μM): 68.03% | invasion inhibition rate ([3]; dose 1 μM): 35.27% | invasion inhibition rate ([3]; dose 4 μM): 54.14% | invasion inhibition rate ([3]; dose 16 μM): 68.21% | invasion inhibition rate ([4]; dose 1 μM): 23.71% | invasion inhibition rate ([4]; dose 4 μM): 49.14% | invasion inhibition rate ([4]; dose 16 μM): 76.64% | invasion inhibition rate ([5]; dose 1 μM): 19.61% | invasion inhibition rate ([5]; dose 4 μM): 43.56% | invasion inhibition rate ([5]; dose 16 μM): 64.79% | invasion inhibition rate ([6]; dose 1 μM): 24.21% | invasion inhibition rate ([6]; dose 4 μM): 42.31% | invasion inhibition rate ([6]; dose 16 μM): 61.51% | invasion inhibition rate ([7]; dose 1 μM): 34.50% | invasion inhibition rate ([7]; dose 4 μM): 55.11% | invasion inhibition rate ([7]; dose 16 μM): 69.43% | invasion inhibition rate ([8]; dose 1 μM): 27.90% | invasion inhibition rate ([8]; dose 4 μM): 45.81% | invasion inhibition rate ([8]; dose 16 μM): 64.26% | migration inhibition rate ([9]; dose 1 μM): 24.60% | migration inhibition rate ([9]; dose 4 μM): 53.43% | migration inhibition rate ([9]; dose 16 μM): 73.81% | migration inhibition rate ([10]; dose 1 μM): 32.06% | migration inhibition rate ([10]; dose 4 μM): 51.90% | migration inhibition rate ([10]; dose 16 μM): 73.40% | migration inhibition rate ([11]; dose 1 μM): 18.29% | migration inhibition rate ([11]; dose 4 μM): 43.48% | migration inhibition rate ([11]; dose 16 μM): 71.45% | migration inhibition rate ([12]; dose 1 μM): 18.81% | migration inhibition rate ([12]; dose 4 μM): 52.05% | migration inhibition rate ([12]; dose 16 μM): 70.90% | migration inhibition rate ([13]; dose 1 μM): 23.73% | migration inhibition rate ([13]; dose 4 μM): 42.23% | migration inhibition rate ([13]; dose 16 μM): 63.31% | migration inhibition rate ([14]; dose 1 μM): 33.10% | migration inhibition rate ([14]; dose 4 μM): 53.37% | migration inhibition rate ([14]; dose 16 μM): 71.20% | migration inhibition rate ([15]; dose 1 μM): 26.14% | migration inhibition rate ([15]; dose 4 μM): 50.24% | migration inhibition rate ([15]; dose 16 μM): 73.32%

MERAGVPGFSPRRSSVEAKMQSTSCSVRKSSTVTAWPAVVLLLSWGQRRGG-OH [HMMW-I]
invasion inhibition rate ([1]; dose 1 μM): 26.12% | invasion inhibition rate ([1]; dose 4 μM): 50.08% | invasion inhibition rate ([1]; dose 16 μM): 68.62% | invasion inhibition rate ([2]; dose 1 μM): 31.23% | invasion inhibition rate ([2]; dose 4 μM): 51.32% | invasion inhibition rate ([2]; dose 16 μM): 64.08% | invasion inhibition rate ([3]; dose 1 μM): 33.80% | invasion inhibition rate ([3]; dose 4 μM): 53.12% | invasion inhibition rate ([3]; dose 16 μM): 66.67% | invasion inhibition rate ([4]; dose 1 μM): 20.75% | invasion inhibition rate ([4]; dose 4 μM): 46.24% | invasion inhibition rate ([4]; dose 16 μM): 74.84% | invasion inhibition rate ([5]; dose 1 μM): 19.63% | invasion inhibition rate ([5]; dose 4 μM): 44.76% | invasion inhibition rate ([5]; dose 16 μM): 64.89% | invasion inhibition rate ([6]; dose 1 μM): 20.43% | invasion inhibition rate ([6]; dose 4 μM): 42.86% | invasion inhibition rate ([6]; dose 16 μM): 66.51% | invasion inhibition rate ([7]; dose 1 μM): 32.74% | invasion inhibition rate ([7]; dose 4 μM): 51.22% | invasion inhibition rate ([7]; dose 16 μM): 69.37% | invasion inhibition rate ([8]; dose 1 μM): 27.97% | invasion inhibition rate ([8]; dose 4 μM): 48.95% | invasion inhibition rate ([8]; dose 16 μM): 70.49% | migration inhibition rate ([9]; dose 1 μM): 27.61% | migration inhibition rate ([9]; dose 4 μM): 53.45% | migration inhibition rate ([9]; dose 16 μM): 76.80% | migration inhibition rate ([10]; dose 1 μM): 35.00% | migration inhibition rate ([10]; dose 4 μM): 53.95% | migration inhibition rate ([10]; dose 16 μM): 73.46% | migration inhibition rate ([11]; dose 1 μM): 15.39% | migration inhibition rate ([11]; dose 4 μM): 42.38% | migration inhibition rate ([11]; dose 16 μM): 71.47% | migration inhibition rate ([12]; dose 1 μM): 19.81% | migration inhibition rate ([12]; dose 4 μM): 51.03% | migration inhibition rate ([12]; dose 16 μM): 70.98% | migration inhibition rate ([13]; dose 1 μM): 23.76% | migration inhibition rate ([13]; dose 4 μM): 42.29% | migration inhibition rate ([13]; dose 16 μM): 68.32% | migration inhibition rate ([14]; dose 1 μM): 33.19% | migration inhibition rate ([14]; dose 4 μM): 55.17% | migration inhibition rate ([14]; dose 16 μM): 73.22% | migration inhibition rate ([15]; dose 1 μM): 28.06% | migration inhibition rate ([15]; dose 4 μM): 50.34% | migration inhibition rate ([15]; dose 16 μM): 75.38%

MGRAGVPGFSPRRSSVEAKMQSTSCSVRKSSTVTAWPAVVLLLSWGQRRGG-OH [HMMW-IX]
invasion inhibition rate ([1]; dose 1 μM): 26.42% | invasion inhibition rate ([1]; dose 4 μM): 57.19% | invasion inhibition rate ([1]; dose 16 μM): 68.35% | invasion inhibition rate ([2]; dose 1 μM): 30.15% | invasion inhibition rate ([2]; dose 4 μM): 60.32% | invasion inhibition rate ([2]; dose 16 μM): 70.35% | invasion inhibition rate ([3]; dose 1 μM): 39.15% | invasion inhibition rate ([3]; dose 4 μM): 59.28% | invasion inhibition rate ([3]; dose 16 μM): 69.51% | invasion inhibition rate ([4]; dose 1 μM): 24.83% | invasion inhibition rate ([4]; dose 4 μM): 48.82% | invasion inhibition rate ([4]; dose 16 μM): 75.16% | invasion inhibition rate ([5]; dose 1 μM): 25.21% | invasion inhibition rate ([5]; dose 4 μM): 48.60% | invasion inhibition rate ([5]; dose 16 μM): 62.48% | invasion inhibition rate ([6]; dose 1 μM): 21.25% | invasion inhibition rate ([6]; dose 4 μM): 40.39% | invasion inhibition rate ([6]; dose 16 μM): 65.47% | invasion inhibition rate ([7]; dose 1 μM): 34.83% | invasion inhibition rate ([7]; dose 4 μM): 54.35% | invasion inhibition rate ([7]; dose 16 μM): 74.16% | invasion inhibition rate ([8]; dose 1 μM): 27.83% | invasion inhibition rate ([8]; dose 4 μM): 49.57% | invasion inhibition rate ([8]; dose 16 μM): 75.43% | migration inhibition rate ([9]; dose 1 μM): 25.61% | migration inhibition rate ([9]; dose 4 μM): 51.45% | migration inhibition rate ([9]; dose 16 μM): 74.80% | migration inhibition rate ([10]; dose 1 μM): 36.00% | migration inhibition rate ([10]; dose 4 μM): 52.95% | migration inhibition rate ([10]; dose 16 μM): 71.46% | migration inhibition rate ([11]; dose 1 μM): 17.39% | migration inhibition rate ([11]; dose 4 μM): 43.38% | migration inhibition rate ([11]; dose 16 μM): 70.47% | migration inhibition rate ([12]; dose 1 μM): 17.81% | migration inhibition rate ([12]; dose 4 μM): 50.03% | migration inhibition rate ([12]; dose 16 μM): 71.98% | migration inhibition rate ([13]; dose 1 μM): 21.76% | migration inhibition rate ([13]; dose 4 μM): 40.29% | migration inhibition rate ([13]; dose 16 μM): 65.32% | migration inhibition rate ([14]; dose 1 μM): 33.19% | migration inhibition rate ([14]; dose 4 μM): 55.17% | migration inhibition rate ([14]; dose 16 μM): 73.22% | migration inhibition rate ([15]; dose 1 μM): 26.06% | migration inhibition rate ([15]; dose 4 μM): 52.34% | migration inhibition rate ([15]; dose 16 μM): 73.38%

— patent US12565522B2, “Micropeptide HMMW and application thereof” (NANJING ANJI BIOTECHNOLOGY CO., LTD., priority 2019, dated 2026)
